# Assay results as given in Sander's compilation of Henry's law constants (doi:10.1007/s002160101077).
# Assay: Henry solubility constant Hcp at 298.15 K (mol/(m3 Pa))
# Settings: reference: Pfeifer et al. (2001)
row,Compound,Henry solubility constant Hcp
1,"COc1cccc(Cl)c1Cl [1,2-dichloro-3-methoxybenzene]",0.022
2,"COc1c(Cl)cc(Cl)cc1Br [2-bromo-4,6-dichloro-1-methoxybenzene]",0.012
3,"COc1c(Cl)c(Cl)cc(Br)c1Cl [3-bromo-2,5,6-trichloro-1-methoxybenzene]",0.01
4,"COc1c(Br)cccc1Br [1,3-dibromo-2-methoxybenzene]",0.037
5,"COc1c(Cl)c(Cl)c(Br)c(Cl)c1Cl [4-bromo-2,3,5,6-tetrachloro-1-methoxybenzene]",0.0092
6,COc1c(Br)c(Br)c(Br)c(Br)c1Br [pentabromomethoxybenzene],1
7,"COc1cc(Cl)c(Cl)cc1Cl [1,2,4-trichloro-5-methoxybenzene]",0.011
8,"COc1c(Br)cc(Br)c(Cl)c1Cl [2,4-dibromo-5,6-dichloro-1-methoxybenzene]",0.0098
9,COc1ccc(Cl)cc1Br [2-bromo-4-chloro-1-methoxybenzene],0.018
10,"COc1cc(Cl)c(Br)c(Cl)c1Br [2,4-dibromo-3,5-dichloro-1-methoxybenzene]",0.0091
11,"COc1cc(Cl)c(Cl)c(Cl)c1Cl [1,2,3,4-tetrachloro-5-methoxybenzene]",0.0065
12,"COc1c(Cl)cc(Br)cc1Cl [4-bromo-2,6-dichloro-1-methoxybenzene]",0.012
13,"COc1cc(Cl)ccc1Cl [1,4-dichloro-2-methoxybenzene]",0.021
14,COc1c(Cl)cccc1Br [2-bromo-6-chloro-1-methoxybenzene],0.014
15,"COc1c(Br)cc(Br)cc1Br [1,3,5-tribromo-2-methoxybenzene]",0.013
16,COc1cccc(Br)c1 [1-bromo-3-methoxybenzene],0.0072
17,"COc1ccc(Cl)cc1Cl [1,5-dichloro-2-methoxybenzene]",0.012
18,"COc1cc(Cl)cc(Cl)c1 [1,3-dichloro-5-methoxybenzene]",0.0023
19,"COc1c(Cl)cc(Cl)c(Br)c1Cl [3-bromo-2,4,6-trichloro-1-methoxybenzene]",0.01
20,"COc1c(Cl)c(Cl)cc(Cl)c1Cl [1,2,4,5-tetrachloro-3-methoxybenzene]",0.0032
21,"COc1cc(Cl)c(Br)c(Cl)c1 [4-bromo-3,5-dichloro-1-methoxybenzene]",0.011

row,Compound,Henry solubility constant Hcp
1,COc1cccc(Cl)c1 [1-chloro-3-methoxybenzene],0.045
2,"COc1cc(Cl)cc(Cl)c1Br [2-bromo-3,5-dichloro-1-methoxybenzene]",0.011
3,"COc1c(Br)cc(Cl)cc1Br [2,6-dibromo-4-chloro-1-methoxybenzene]",0.011
4,"COc1c(Cl)cc(Cl)cc1Cl [1,3,5-trichloro-2-methoxybenzene]",0.0046
5,COc1ccc(Br)cc1Cl [4-bromo-2-chloro-1-methoxybenzene],0.013
6,"COc1ccc(Cl)c(Cl)c1Cl [1,2,3-trichloro-4-methoxybenzene]",0.013
7,"COc1c(Cl)cccc1Cl [1,3-dichloro-2-methoxybenzene]",0.0088
8,"COc1c(Cl)ccc(Cl)c1Cl [1,2,4-trichloro-3-methoxybenzene]",0.0098
9,"COc1ccc(Cl)c(Cl)c1 [1,2-dichloro-4-methoxybenzene]",0.0092
10,"COc1c(Br)ccc(Cl)c1Cl [6-bromo-2,3-dichloro-1-methoxybenzene]",0.011
11,"COc1c(Br)cc(Br)c(Cl)c1Br [2,4,6-tribromo-3-chloro-1-methoxybenzene]",0.0091
12,COc1c(Cl)c(Cl)c(Cl)c(Cl)c1Cl [pentachloromethoxybenzene],0.0021
13,COc1ccccc1Br [1-bromo-2-methoxybenzene],0.029
14,"COc1c(Cl)cc(Br)c(Cl)c1Cl [4-bromo-2,3,6-trichloro-1-methoxybenzene]",0.01
15,COc1ccc(Br)cc1 [1-bromo-4-methoxybenzene],0.011
16,"COc1ccc(Br)cc1Br [1,5-dibromo-2-methoxybenzene]",0.081
17,"COc1cc(Br)c(Cl)cc1Cl [5-bromo-2,4-dichloro-1-methoxybenzene]",0.011
18,"COc1cc(Cl)c(Cl)c(Cl)c1 [1,2,3-trichloro-5-methoxybenzene]",0.0044
19,"COc1c(Cl)cc(Cl)c(Cl)c1Cl [1,2,3,5-tetrachloro-4-methoxybenzene]",0.0031
20,"COc1ccc(Br)c(Cl)c1Cl [4-bromo-2,3-dichloro-1-methoxybenzene]",0.011
